In patent US9623014B2 (Entasis Therapeutics Limited, priority 2012, dated 2017) one finds MIC data, which are given here for 13 molecules.

One test has as its system S. aureus (MSSA). As to the kind of experiment: MIC, broth microdilution (CLSI). Conditions: Staphylococcus aureus, MSSA; compound alone. It is filed as cell-based, Staphylococcus aureus. The protocol:
(§1) Minimum Inhibitory Concentrations (MICs) were determined by the broth microdilution method in accordance with the Clinical and Laboratory Standards Institute (CLSI) guidelines. Clinical Laboratory Standards Institute: Methods for Dilution Antimicrobial Susceptability Tests for Bacteria That Grow Aerobically (8th Ed. (2009)) M07-A8. In brief, organism suspensions were adjusted to a 0.5 McFarland standard and further diluted to yield a final inoculum between 3×10^5 and 7×10^5 colony-forming units (CFU)/mL. Bacterial inocula were made in sterile, cation adjusted Mueller-Hinton Broth (Beckton Dickinson) for either Escherichia coli, Klebsiella pneumoniae, or Pseudomonas aeruginosa. Haemophilus influenzae bacterial inocula were made in sterile, cation adjusted Mueller-Hinton Broth (Beckton Dickinson) containing 0.5% yeast extract (Beckton Dickinson) plus 15 μg/ml Bovine Hematin (Sigma) and 15 μg/ml β-nicotinamide adenine dinucleotide (Sigma). Bacterial inocula were made in sterile, cation adjusted Mueller-Hinton Broth (Beckton Dickinson) for Staphylococcus aureus or sterile, cation adjusted Mueller-Hinton Broth containing 2.5% lysed horse blood (Hema Resource & Supply Inc.) for Streptococcus pneumoniae and Streptococcus pyogenes. An inoculum volume of 100 uL was added to wells (using a Tecan EVO robot) containing 2 uL of DMSO containing 2-fold serial dilutions of drug. […] All inoculated microdilution trays were incubated in ambient air at 35° C. for 18-24 hours. Following incubation, the lowest concentration of the drug that prevented visible growth as read at OD600 nm was recorded as the MIC. Performance of the assay was monitored by the use of laboratory quality-control strains and commercially available control compounds with defined MIC spectrums, in accordance with CLSI guidelines.

A further test has as its system S. aureus (MRSA). The test can be described thus: MIC, broth microdilution (CLSI). Format: cell-based, Staphylococcus aureus. Conditions: Staphylococcus aureus, MRSA; compound alone. The method, then:
as §1
(Broth dilution looks for growth in wells or tubes with falling amounts of substance.)

Test [1] deals with Klebsiella pneumoniae KPC2. As to the kind of experiment: MIC alone against β-lactamase producing strain. The conditions noted are these: Klebsiella pneumoniae, KPC2; substance alone. It is filed as cell-based. The method, then:
as §1

Test [2] has as its system Pseudomonas aeruginosa AmpC (first AmpC column). As to the kind of experiment: MIC alone against β-lactamase producing strain. It is filed as cell-based. Conditions: substance alone, column 2. The protocol: as §1
Test [3] deals with Pseudomonas aeruginosa PER-1, OXA-10. As to the kind of experiment: MIC alone against β-lactamase producing strain. The conditions noted are these: Pseudomonas aeruginosa; substance alone. It is filed as cell-based. The protocol: as §1
Test [4] has as its system Pseudomonas aeruginosa AmpC (second AmpC column). As to the kind of experiment: MIC alone against β-lactamase producing strain. Format: cell-based. The conditions noted are these: substance alone, column 4. The protocol: as §1
For a further test, the system named is Haemophilus influenzae. As to the kind of experiment: MIC, broth microdilution (CLSI). It is filed as cell-based. Conditions: Haemophilus influenzae; compound alone; read-out: MIC H. influenzae. The protocol: as §1
Another test has as its system Streptococcus pyogenes. As to the kind of experiment: MIC, broth microdilution (CLSI). It is filed as cell-based. Conditions: Streptococcus pyogenes; compound alone; read-out: MIC S. pyogenes. The method, then:
as §1

In the next test the test system is Escherichia coli. As to the kind of experiment: MIC, broth microdilution (CLSI). Format: cell-based. The conditions noted are these: Escherichia coli; compound alone. The method, then:
as §1

A further test deals with Streptococcus pneumoniae. As to the kind of experiment: MIC, broth microdilution (CLSI). It is filed as cell-based. Conditions: Streptococcus pneumoniae; compound alone; read-out: MIC S. pneumon. The method, then:
as §1

The subject of the next test is Pseudomonas aeruginosa. As to the kind of experiment: MIC, broth microdilution (CLSI). It is filed as cell-based. Conditions: Pseudomonas aeruginosa; compound alone; read-out: MIC P. aeruginosa. The method, then:
as §1

Another test has as its system Klebsiella pneumoniae. As to the kind of experiment: MIC, broth microdilution (CLSI). It is filed as cell-based. Conditions: Klebsiella pneumoniae; compound alone; read-out: MIC K. pneumon. The protocol:
as §1

Values after ≈ are worked out from the molar mass of the structure shown. Counter-ions that a name gives are not always drawn.

With `CC1=C[C@@H](C(=O)NCCN)N2C[C@@H]1N(OS(=O)(=O)O)C2=O` [Example 6, (2S,5R)-2-(2-aminoethylcarbamoyl)-4-methyl-7-oxo-1,6-diazabicyclo[3.2.1]oct-3-en-6-yl hydrogen sulfate], the MIC in the test on S. aureus (MSSA) was 200 µg/mL; against S. aureus (MRSA), over 200 µg/mL; in test [1], 0.25 µg/mL; in test [2], 16 µg/mL; in [3], 16 µg/mL; in [4] it was 16 µg/mL. For the same molecule, the MIC was over 200 µg/mL in the test on Haemophilus influenzae; 25 µg/mL with Streptococcus pyogenes; over 200 µg/mL in the test on Escherichia coli; 25 µg/mL in the test with Streptococcus pneumoniae; 25 µg/mL in the test with Pseudomonas aeruginosa; over 200 µg/mL with Klebsiella pneumoniae.
Take `CC(C)(O/N=C(\C(=O)N[C@@H]1C(=O)N2C(C(=O)[O-])=C(C[n+]3ccccc3)CS[C@H]12)c1csc(N)n1)C(=O)O` [Ceftazidime, ceftazidime, reference compound]: the MIC was determined as 256 µg/mL (≈ 468 µM) in [1], 128 µg/mL (≈ 234 µM) in test [2], 256 µg/mL (≈ 468 µM) in test [3] and 32 µg/mL (≈ 58.5 µM) in test [4].
For `COCC1=C[C@@H](COC)N2C[C@@H]1N(OS(=O)(=O)[O-])C2=O.[Na+]` [Example 13, (2S,5R)-2,4-bis(methoxymethyl)-7-oxo-1,6-diazabicyclo[3.2.1]oct-3-en-6-yl sulfate Sodium salt], the MIC in the test with S. aureus (MSSA) was over 200 µg/mL; in the test with S. aureus (MRSA), over 200 µg/mL; in [1] it was over 16 µg/mL; in [2] it was over 16 µg/mL; in test [3], over 16 µg/mL; in test [4], over 16 µg/mL. Moreover, the MIC with Haemophilus influenzae was 200 µg/mL; with Streptococcus pyogenes, 100 µg/mL; in the test on Escherichia coli it was over 200 µg/mL; in the test with Streptococcus pneumoniae it was 50 µg/mL; in the test with Pseudomonas aeruginosa, over 200 µg/mL; with Klebsiella pneumoniae it was over 200 µg/mL.
Turning to `CC1=C[C@@H](C#N)N2C[C@@H]1N(OS(=O)(=O)O)C2=O.[Na]` [Example 2, (2S,5R)-2-cyano-4-methyl-7-oxo-1,6-diazabicyclo[3.2.1]oct-3-en-6-yl hydrogen sulfate sodium salt], the MIC in the test with S. aureus (MSSA) is 100 µg/mL; against S. aureus (MRSA), 100 µg/mL; in test [1] it was 64 µg/mL; in [2] it was over 64 µg/mL; in [3], over 64 µg/mL; in test [4] it was over 64 µg/mL. Also, the MIC in the test with Haemophilus influenzae is 12.5 µg/mL; with Streptococcus pyogenes, 3.13 µg/mL; in the test on Escherichia coli, 100 µg/mL; with Streptococcus pneumoniae it was 25 µg/mL; in the test on Pseudomonas aeruginosa it was over 200 µg/mL; with Klebsiella pneumoniae, 100 µg/mL.
For the molecule `CC1=C[C@@H](C(=O)NC2CCNCC2)N2C[C@@H]1N(OS(=O)(=O)O)C2=O` [Example 3, (2S,5R)-4-methyl-7-oxo-2-(piperidinium-4-ylcarbamoyl)-1,6-diazabicyclo[3.2.1]oct-3-en-6-yl sulfate], the MIC with S. aureus (MSSA) was over 200 µg/mL; against S. aureus (MRSA), over 200 µg/mL; with Haemophilus influenzae, 3.13 µg/mL; in the test with Streptococcus pyogenes, 50 µg/mL; against Escherichia coli, over 200 µg/mL; in the test on Streptococcus pneumoniae, 50 µg/mL. The MIC in the test on Pseudomonas aeruginosa and in the test on Klebsiella pneumoniae was over 200 µg/mL in each case.
Regarding `CC(C)C1=C[C@@H](C(N)=O)N2C[C@@H]1N(OS(=O)(=O)O)C2=O.[Na]` [Example 4, (2S,5R)-2-carbamoyl-4-isopropyl-7-oxo-1,6-diazabicyclo[3.2.1]oct-3-en-6-yl hydrogen sulfate sodium salt], the MIC against S. aureus (MRSA) was over 200 µg/mL; in test [1] it was over 64 µg/mL; in test [2], over 64 µg/mL; in test [3], over 64 µg/mL; in [4], over 64 µg/mL; with Haemophilus influenzae, over 200 µg/mL. Also, the MIC was 50 µg/mL with Streptococcus pyogenes; over 200 µg/mL against Escherichia coli; 200 µg/mL in the test on Streptococcus pneumoniae; over 200 µg/mL in the test with Pseudomonas aeruginosa; over 200 µg/mL in the test on Klebsiella pneumoniae.
For the molecule `CC(C)C1=C[C@@H](C#N)N2C[C@@H]1N(OS(=O)(=O)O)C2=O.[Na]` [Example 5, (2S,5R)-2-cyano-4-isopropyl-7-oxo-1,6-diazabicyclo[3.2.1]oct-3-en-6-yl hydrogen sulfate sodium salt], the MIC against S. aureus (MSSA) is over 200 µg/mL; in the test on S. aureus (MRSA), over 200 µg/mL; in the test with Haemophilus influenzae, 100 µg/mL; in the test with Streptococcus pyogenes, 50 µg/mL; against Escherichia coli it was over 200 µg/mL; in the test with Streptococcus pneumoniae, 100 µg/mL. The MIC in the test on Pseudomonas aeruginosa and with Klebsiella pneumoniae was over 200 µg/mL throughout.
`CC1=C[C@@H](C(=O)NCc2cc(=O)c(O)c[nH]2)N2C[C@@H]1N(OS(=O)(=O)O)C2=O` [Example 8, (2S,5R)-2-((5-hydroxy-4-oxo-1,4-dihydropyridin-2-yl)methylcarbamoyl)-4-methyl-7-oxo-1,6-diazabicyclo[3.2.1]oct-3-en-6-yl hydrogen sulfate sodium salt]: the MIC in [1], in test [2], in [3] and in test [4] was over 16 µg/mL throughout.
`CC1=C[C@@H](C(N)=O)N2C[C@@H]1N(OS(=O)(=O)O)C2=O.[Na]` [Example 1, (2S,5R)-2-carbamoyl-4-methyl-7-oxo-1,6-diazabicyclo[3.2.1]oct-3-en-6-yl hydrogen sulfate sodium salt]: the MIC in the test with S. aureus (MSSA) is 25 µg/mL; against S. aureus (MRSA) it was over 200 µg/mL; in test [1], 8 µg/mL; in [2], 64 µg/mL; in test [3], over 64 µg/mL; in test [4] it was over 64 µg/mL. Besides, the MIC was determined as 3.13 µg/mL in the test on Streptococcus pyogenes; 50 µg/mL with Escherichia coli; 6.25 µg/mL in the test with Streptococcus pneumoniae; 200 µg/mL in the test on Pseudomonas aeruginosa; 50 µg/mL in the test on Klebsiella pneumoniae.
Turning to `COC[C@@H]1C=C(C(N)=O)[C@@H]2CN1C(=O)N2OS(=O)(=O)O` [Example 12, (2S,5R)-4-carbamoyl-2-(methoxymethyl)-7-oxo-1,6-diazabicyclo[3.2.1]oct-3-en-6-yl hydrogen sulfate, monosodium salt], the MIC against S. aureus (MRSA) was over 200 µg/mL; in test [1], 64 µg/mL; in test [2] it was over 64 µg/mL; in test [3], over 64 µg/mL; in [4], over 64 µg/mL; in the test with Haemophilus influenzae, 100 µg/mL. For the same molecule, the MIC in the test with Streptococcus pyogenes is 25 µg/mL; against Escherichia coli it was 100 µg/mL; in the test on Streptococcus pneumoniae, 25 µg/mL; in the test on Pseudomonas aeruginosa, over 200 µg/mL; in the test on Klebsiella pneumoniae it was 50 µg/mL.
On to `CC(C)(C)OC(=O)N1CCC(NC(=O)[C@@H]2C=C[C@@H]3CN2C(=O)N3OS(=O)(=O)O)CC1` [Example 14, (2S,5R)-2-(1-(tert-butoxycarbonyl)piperidin-4-ylcarbamoyl)-7-oxo-1,6-diazabicyclo[3.2.1]oct-3-en-6-yl sulfate sodium salt], for which the MIC in the test on S. aureus (MSSA) is 100 µg/mL; in the test on S. aureus (MRSA), over 200 µg/mL; with Haemophilus influenzae it was 12.5 µg/mL; with Streptococcus pyogenes, 100 µg/mL; with Escherichia coli it was over 200 µg/mL; with Streptococcus pneumoniae it was 100 µg/mL. For the same molecule, the MIC in the test with Pseudomonas aeruginosa and in the test on Klebsiella pneumoniae was over 200 µg/mL in each case.
Turning to `C=C(C)C1=C[C@@H](COC)N2C[C@@H]1N(OS(=O)(=O)O)C2=O.[Na]` [Example 7, (2S,5R)-2-(methoxymethyl)-7-oxo-4-(prop-1-en-2-yl)-1,6-diazabicyclo[3.2.1]oct-3-en-6-yl hydrogen sulfate sodium salt], the MIC in the test with S. aureus (MSSA), against S. aureus (MRSA), in the test on Haemophilus influenzae, with Streptococcus pyogenes, against Escherichia coli and in the test with Streptococcus pneumoniae was over 200 µg/mL each time. The MIC in the test with Pseudomonas aeruginosa and with Klebsiella pneumoniae was over 200 µg/mL in each case.
In the case of `COCC1=C[C@@H](C(N)=O)N2C[C@@H]1N(OS(=O)(=O)[O-])C2=O.[Na+]` [Example 9, (2S,5R)-2-carbamoyl-4-(methoxymethyl)-7-oxo-1,6-diazabicyclo[3.2.1]oct-3-en-6-yl hydrogen sulfate sodium salt], the MIC in [1], in test [2], in test [3] and in test [4] was over 16 µg/mL throughout.
